The NIST ThermoML archive (doi:10.1021/acs.jced.8b01044)
Numbers after ± are expanded uncertainties.

What was measured:
[1] = Crystal; DSC
[2] = Molar enthalpy of transition or fusion; details: Crystal; DSC

| Triple point temperature [1] [K] | Molar enthalpy of transition or fusion [2] [kcal/mol] | SMILES |
| --- | --- | --- |
| 336.13 ± 0.93 | 12.1 ± 0.765 | CCCCCCCCCCCCCCCC(=O)O [hexadecanoic acid] |
| 344.08 ± 0.93 | 14.5 ± 0.86 | CCCCCCCCCCCCCCCCCC(=O)O [octadecanoic acid] |
| 317.71 ± 0.93 | 8.54 ± 0.598 | CCCCCCCCCCCC(=O)O [dodecanoic acid] |
